Measured values as given in US20140057997A1, “COSMETIC COMPOSITION COMPRISING 4-(3-ETHOXY-4-HYDROXYPHENYL)-2-BUTANONE AND A LIPOPHILIC SOLVENT” (L'OREAL, priority 2011, published 2014).

Assay: Solubility stated in the introduction
Assay type: physicochemical

Solubility (in 2-octyldodecanol): very sparingly soluble
Solubility (in glycerol): very sparingly soluble
Solubility (in water): very sparingly soluble
Compound: CCOc1cc(CCC(C)=O)ccc1O [4-(3-ethoxy-4-hydroxyphenyl)-2-butanone, 4-(3-Ethoxy-4-hydroxyphenyl)-2-butanone]
